Converted amounts (≈) assume the structure as drawn.
Legend:
BVDV strain Pe515 = test: anti-BVDV activity in MDBK cells (MTS method); assay type: cell-based, bovine viral diarrhea virus; details: for anti-viral activity against BVDV (in words): second set of screenings
Procedure: (§1) The compounds were also screened against flaviviruses. Due to the fact that there is no adequate in vitro assay to screen against HCV, we opted to screen against the bovine viral diarrhea virus (BVDV), as it shares many similarities with the hepatitis C virus. Antiviral activity was assessed using the Pe 515 strain of BVDV on Madin Darby bovine kidney cells (MDBK cells). Both antiviral activity and cytotoxicity was determined by means of the MTS method. The EC50 is the concentration required to reduce virus induced cytopathic effect by 50%. The MTC (minimal toxic concentration) was defined as the concentration that caused >=20% reduction in cell metabolism.

[1] = system: L1210/0, FM3A/0, Molt4/C8 and CEM/0; test: anti-tumor screening, verdict over all tested cell-lines; assay type: cell-based
CEM/0 = details: human T-lymphocyte cells, proliferation
Description: (§2) The compounds were also checked for anti-tumor activity via the proliferation of murine leukemia cells (L 1210/0), murine mammary carcinoma cells (FM3A) and human T-lymphocyte cells (Molt4/C8, CEM/0).

FM3A/0 = details: murine mammary carcinoma cells, proliferation
Description: as §2

L1210/0 = details: murine leukemia cells, proliferation
Description: as §2

Molt4/C8 = details: human T-lymphocyte cells, proliferation
Description: as §2

E. coli ATCC 25922 = test: antibacterial microdilution screening; assay type: cell-based, Escherichia coli; details: 16 hours at 35° C., Mueller-Hinton broth
Procedure: (§3) Based on the NCCLS documents M7-A4, Vol. 17 No. 2, M27-A, Vol 17 No. 9 and M38-P, Vol 18 No. 13, a microdilution method for conducting the antibacterial and antifungal screenings was developed using a Bioscreen C Analyser (Labsystems, Finland), which is an automated reader-incubator. It measures growth continuously by vertical photometry (optical density), processes the data and provides a print-out of the results. For the bacteria we selected as primary target: Staphylococcus aureus ATCC29213, Enterococcus faecalisATCC 29212, Escherichia coli ATCC 25922 and Pseudomonas aeruginosa ATCC 27853. Candida albicans ATCC 24433 and Cryptococcus neoformans ATCC 90112 were selected as yeast targets. The dermatophyte Trichophyton mentagrophytes ATCC 9533 and the invasive mould Aspergillus fumigatus ATCC 2895 were selected as moulds. All parameters necessary for optimal incubation can be programmed in the Biolink-software (Labsystems, Finland). Incubation for all bacterial screenings was 16 hours at 35° C. The incubation parameters for the screenings against Candida and Cryptococcus were respectively 24 and 48 hours at 35° C., the invasive fungus Aspergillus fumigatus was incubated for 3 days at 30° C. and the dermatophyte T. mentagrophytes was incubated for 5 days at 30° C. As growth media for the bacteria cation adjusted Mueller-Hinton broth (Oxoid, Belgium) was used. A synthetic medium is recommended for fungal susceptibility tests: RPMI 1640, with glutamine, and without bicarbonate and with a pH indicator (Oxoid), supplemented with 1% glucose.25 μl of a 10-fold compound concentration is pipetted into each well. To each 25 μl test compound 225 μl of growth media was added. As measurement tool for the antibacterial and anti-yeast screenings, the area under the growth curve is used, which is automatically determined via the Biolink software. For the screenings against the pathogenic moulds we used endpoint OD-measurement. For internal quality control, reference antibiotics for each micro-organism are incorporated in the set-up of the tests.

A. fumigatus ATCC 2895 = test: antifungal microdilution screening; assay type: cell-based, Aspergillus fumigatus; details: 3 days at 30° C., RPMI 1640
Procedure: as §3

HSV-1 (KOS) = assay type: cell-based, herpes simplex virus; details: HSV-induced cytopathicity, human embryo fibroblast E6SM cell cultures
[2] = system: T. mentagrophytes ATCC 9533; test: antifungal microdilution screening; assay type: cell-based, Trichophyton mentagrophytes; details: 5 days at 30° C., RPMI 1640
Procedure: as §3

P. aeruginosa ATCC 27853 = test: antibacterial microdilution screening; assay type: cell-based, Pseudomonas aeruginosa; details: 16 hours at 35° C., Mueller-Hinton broth
Procedure: as §3

VV = assay type: cell-based, vaccinia virus; details: VV-induced cytopathicity, human embryo fibroblast E6SM cell cultures
C. albicans ATCC 24433 = test: antifungal microdilution screening; assay type: cell-based, Candida albicans; details: 24 hours at 35° C., RPMI 1640
Procedure: as §3

HIV-2 (ROD) = assay type: cell-based, human immunodeficiency virus; details: HIV-induced cytopathicity, human lymphocyte CEM cell cultures
HSV-2 (G) = assay type: cell-based, herpes simplex virus; details: HSV-induced cytopathicity, human embryo fibroblast E6SM cell cultures
MDBK cells = test: cytotoxicity in MDBK cells (MTS method); assay type: cell-based, bovine; details: minimal toxic concentration causing >=20% reduction in cell metabolism; highest concentration 100 μg/ml
Procedure: as §1

S. aureus ATCC 29213 = test: antibacterial microdilution screening; assay type: cell-based, Staphylococcus aureus; details: 16 hours at 35° C., Mueller-Hinton broth
Procedure: as §3

HIV-1 (IIIB) = test: HIV-1-induced cytopathicity in CEM cell cultures; assay type: cell-based, human immunodeficiency virus; details: human lymphocyte CEM cell cultures
C. neoformans ATCC 90112 = test: antifungal microdilution screening; assay type: cell-based, Cryptococcus neoformans; details: 48 hours at 35° C., RPMI 1640
Procedure: as §3

CMV Davis, AD-169 = test: CMV-induced plaque formation in HEL cells; assay type: cell-based, human cytomegalo virus; details: human embryonic lung HEL cells, day 7
E. faecalis ATCC 29212 = test: antibacterial microdilution screening; assay type: cell-based, Enterococcus faecalis; details: 16 hours at 35° C., Mueller-Hinton broth
Procedure: as §3

VZV OKA = assay type: cell-based, varicella zoster virus

SMILES	anti-tumor activity against all tested cell-lines (in words) [1]	IC50 CEM/0 (CEM/0)	IC50 FM3A/0 (FM3A/0)	IC50 L1210/0 (L1210/0)	IC50 Molt4/C8 (Molt4/C8)	MIC E. coli ATCC 25922 (E. coli ATCC 25922)	MIC A. fumigatus ATCC 2895 (A. fumigatus ATCC 2895)	EC50 HSV-1 (KOS) (E6SM) (HSV-1 (KOS))	MIC T. mentagrophytes ATCC 9533 [2]	MIC P. aeruginosa ATCC 27853 (P. aeruginosa ATCC 27853)	MIC C. albicans ATCC 24433 (C. albicans ATCC 24433)	EC50 HIV-2 (ROD) (CEM) (HIV-2 (ROD))	EC50 HSV-2 (G) (E6SM) (HSV-2 (G))	MTC (μg/ml) MDBK (MDBK cells)	anti-viral activity against BVDV (in words) (BVDV strain Pe515)	MIC S. aureus ATCC 29213 (S. aureus ATCC 29213)	EC50 HIV-1 (IIIB) (CEM) (HIV-1 (IIIB))	MIC C. neoformans ATCC 90112 (C. neoformans ATCC 90112)	EC50 CMV Davis, AD-169 (HEL) (CMV Davis, AD-169)	MIC E. faecalis ATCC 29212 (E. faecalis ATCC 29212)	further results
NC(=O)c1ncn([C@@H]2O[C@H](CO)[C@@H](O)[C@H]2O)n1 [Ribavirin, reference compound]	–	–	–	–	–	–	–	–	–	–	–	–	–	–	–	–	–	–	–	–	EC50 (BVDV strain Pe515; Bovine viral diarrhea virus isolates and strains, strain Pe515, MDBK cells, MTS method, values separated by / are independent experiments, read-out: EC50 (μg/ml) BVDV): 40 µg/mL (≈ 164 µM)
CCCOC1C(Cc2ccccc2)OC2COC(c3ccccc3)OC2C1OCCC (stereo not shown) [Compound A1]	No anti-tumor activity	>200 µg/mL	>200 µg/mL	>200 µg/mL	>200 µg/mL	>25 µg/mL	>25 µg/mL	>16 µg/mL	>25 µg/mL	>25 µg/mL	>25 µg/mL	>4 µg/mL	>16 µg/mL	>100/>100/>100 μg/ml	significant anti-viral activity	>25 µg/mL	>20 µg/mL	>25 µg/mL	>20 µg/mL	>25 µg/mL	EC50 VV (E6SM) (VV): >16 µg/mL
CCCCOC1C(Cc2ccccc2)OC2COC(c3ccccc3)OC2C1OCCCC (stereo not shown) [Compound A2]	moderate anti-tumor activity	27 ± 2 µg/mL (≈ 59.4 µM)	22 ± 0 µg/mL (≈ 48.4 µM)	82 ± 7 µg/mL (≈ 180 µM)	19 ± 1 µg/mL (≈ 41.8 µM)	>25 µg/mL	>25 µg/mL	>16 µg/mL	>25 µg/mL	>25 µg/mL	>25 µg/mL	>20 µg/mL	>16 µg/mL	>100/>100/>100 μg/ml	moderate activity	>25 µg/mL	>20 µg/mL	>25 µg/mL	>20 µg/mL	>25 µg/mL	EC50 VV (E6SM) (VV): >16 µg/mL
CC(C)OC1C(c2ccccc2)OC2COC(c3ccccc3)OC2C1OC(C)C (stereo not shown) [Compound A3]	–	–	–	–	–	>25 µg/mL	>25 µg/mL	>8 µg/mL	>25 µg/mL	>25 µg/mL	>25 µg/mL	>4 µg/mL	>8 µg/mL	>100 µg/mL	significant anti-viral activity	>25 µg/mL	>20 µg/mL	>25 µg/mL	>5 µg/mL	>25 µg/mL	EC50 VZV (HEL) OKA (VZV OKA; VZV-induced plaque formation, human embryonic lung HEL cell cultures, OKA strain): 1.1 µg/mL (≈ 2.67 µM); activity against VZV (in words) (VZV OKA; first set of screenings): showed activity against VZV; EC50 (μg/ml) BVDV (BVDV strain Pe515; strain Pe515, MDBK cells, MTS method, values separated by / are independent experiments): < 0.8 µg/mL
